The target of test [1] is T1, BACE1 (Homo sapiens (Human), UniProt P56817). In words: In vitro enzymatic BACE1 FRET assay. It is filed as biochemical. The following applies: read-out: IC50 IP (μM) BACE1 Enzyme.
Target sequence in this assay (P56817 46-501): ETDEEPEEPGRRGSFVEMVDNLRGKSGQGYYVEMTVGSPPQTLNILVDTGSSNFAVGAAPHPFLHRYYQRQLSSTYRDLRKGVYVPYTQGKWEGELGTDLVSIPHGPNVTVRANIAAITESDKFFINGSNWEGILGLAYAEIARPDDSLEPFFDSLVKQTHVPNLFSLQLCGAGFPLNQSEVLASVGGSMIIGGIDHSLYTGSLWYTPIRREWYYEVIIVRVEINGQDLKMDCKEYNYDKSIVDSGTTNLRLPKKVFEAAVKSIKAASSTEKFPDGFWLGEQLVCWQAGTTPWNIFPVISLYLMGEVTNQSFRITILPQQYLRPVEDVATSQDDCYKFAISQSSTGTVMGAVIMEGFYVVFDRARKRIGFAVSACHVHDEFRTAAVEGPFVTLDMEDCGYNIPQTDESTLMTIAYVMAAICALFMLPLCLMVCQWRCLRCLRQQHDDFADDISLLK
Description: (§1) In Vitro Enzymatic BACE1 and BACE2 FRET (Fluorescence Resonance Energy Transfer) Assays (Enzyme Assay Data in Table 1)
Test [2] has as its target T1, BACE1. In words: BACE1 cell assay. It is filed as cell-based.
Target sequence in this assay (P56817 46-501, species assumed): as the sequence (P56817 46-501) above
Another test has as its target BACE2 (Homo sapiens (Human), UniProt Q9Y5Z0). The test is described as follows: In vitro enzymatic BACE2 FRET assay. It is filed as biochemical. Conditions: read-out: IC50 IP (μM) BACE2 Enzyme.
In the next test the target is Cathepsin D (CatD) (Homo sapiens (Human), UniProt P07339). In words: CatD assay. It is filed as biochemical. Conditions: read-out: IC50 IP (μM) CatD.
Chain of Cathepsin D (CatD) (P07339 65-412, species assumed): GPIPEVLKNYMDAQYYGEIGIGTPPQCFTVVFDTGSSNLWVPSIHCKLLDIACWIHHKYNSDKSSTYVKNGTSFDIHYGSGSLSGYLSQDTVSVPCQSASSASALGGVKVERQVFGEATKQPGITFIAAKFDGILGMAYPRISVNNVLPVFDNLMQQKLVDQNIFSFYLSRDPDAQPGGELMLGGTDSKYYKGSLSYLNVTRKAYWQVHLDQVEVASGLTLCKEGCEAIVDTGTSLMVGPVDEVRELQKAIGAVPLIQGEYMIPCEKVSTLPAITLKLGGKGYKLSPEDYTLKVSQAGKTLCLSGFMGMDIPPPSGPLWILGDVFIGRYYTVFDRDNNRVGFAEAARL
[3] abbreviates: read-out: IC50 IP (μM) BACE1 Cell.

The IC50 is the concentration that inhibits the measured activity by half.

Chain of BACE2 (Q9Y5Z0 63-518): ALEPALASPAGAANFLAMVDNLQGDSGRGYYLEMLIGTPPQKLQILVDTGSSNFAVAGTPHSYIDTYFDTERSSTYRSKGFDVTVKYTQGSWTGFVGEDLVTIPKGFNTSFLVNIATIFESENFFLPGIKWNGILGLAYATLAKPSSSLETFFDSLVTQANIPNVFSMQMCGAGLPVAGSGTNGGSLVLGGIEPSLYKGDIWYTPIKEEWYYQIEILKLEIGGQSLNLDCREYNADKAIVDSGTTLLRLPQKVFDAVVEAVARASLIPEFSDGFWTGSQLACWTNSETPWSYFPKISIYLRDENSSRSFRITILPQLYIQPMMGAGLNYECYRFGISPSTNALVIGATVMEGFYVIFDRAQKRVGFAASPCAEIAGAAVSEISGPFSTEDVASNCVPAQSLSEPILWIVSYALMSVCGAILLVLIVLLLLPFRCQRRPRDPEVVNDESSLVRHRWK
Description for BACE2: as §1

For `CN(C)C(=O)[C@]12C[C@H]1[C@@](C)(c1cc(/C=C(\F)c3cnc(OCC(F)(F)C(F)F)cn3)cnc1F)N=C(N)S2` [Example 291, (1S,5S,6S)-3-amino-5-(2-fluoro-5-((Z)-2-fluoro-2-(5-(2,2,3,3-tetrafluoropropoxy)pyrazin-2-yl)vinyl)pyridin-3-yl)-N,N,5-trimethyl-2-thia-4-azabicyclo[4.1.0]hept-3-ene-1-carboxamide], the 50% inhibitory concentration (IC50) on BACE1 [1] was determined as 0.0406 µM; at BACE1 [2], 0.326 µM; on BACE2, 0.106 µM; at Cathepsin D (CatD) it was 290 µM.

Consider `C#CCOc1cnc(/C(F)=C/c2cnc(F)c([C@@]3(C)N=C(N)S[C@@]4(C(=O)OC)C[C@H]43)c2)cn1` [Example 294, (1S,5S,6S)-methyl 3-amino-5-(2-fluoro-5-((Z)-2-fluoro-2-(5-(prop-2-yn-1-yloxy)pyrazin-2-yl)vinyl)pyridin-3-yl)-5-methyl-2-thia-4-azabicyclo[4.1.0]hept-3-ene-1-carboxylate methanone], for which the IC50 at BACE1 [1] amounted to 0.0089 µM; at BACE1 [2] (setting [3]), 0.0949 µM; on BACE2 it was 2.76 µM; on Cathepsin D (CatD), 400 µM.

For `C#CCOc1cnc(/C(F)=C/c2cnc(F)c([C@@]3(C)N=C(N)S[C@@]4(C(=O)N5CC[C@@H](F)C5)C[C@H]43)c2)cn1` [Example 295, ((1S,5S,6S)-3-amino-5-(2-fluoro-5-((Z)-2-fluoro-2-(5-(prop-2-yn-1-yloxy)pyrazin-2-yl)vinyl)pyridin-3-yl)-5-methyl-2-thia-4-azabicyclo[4.1.0]hept-3-en-1-yl)((R)-3-fluoropyrrolidin-1-yl)methanone], the concentration for half-maximal inhibition (IC50) on BACE1 [1] was 0.0008 µM; at BACE1 [2] (setting [3]), 0.0004 µM; at BACE2 it was 0.078 µM; at Cathepsin D (CatD), 58.6 µM.

In the case of `CN(C)C(=O)[C@]12C[C@H]1[C@@](C)(c1cc(/C=C(\F)c3cnc(C#N)cn3)cnc1F)N=C(N)S2` [Example 296, (1S,5S,6S)-3-amino-5-(5-((Z)-2-(5-cyanopyrazin-2-yl)-2-fluorovinyl)-2-fluoropyridin-3-yl)-N,N,5-trimethyl-2-thia-4-azabicyclo[4.1.0]hept-3-ene-1-carboxamide], the IC50 was 0.0119 µM on BACE1 [1], 0.0435 µM at BACE1 [2], 0.037 µM on BACE2 and 290 µM on Cathepsin D (CatD).

Take `C#CCOc1cnc(/C(F)=C/c2cnc(F)c([C@@]3(C)N=C(N)S[C@@]4(C(=O)NCC(F)F)C[C@H]43)c2)cn1` [Example 300, (1S,5S,6S)-3-amino-N-(2,2-difluoroethyl)-5-(2-fluoro-5-((Z)-2-fluoro-2-(5-(prop-2-yn-1-yloxy)pyrazin-2-yl)vinyl)pyridin-3-yl)-5-methyl-2-thia-4-azabicyclo[4.1.0]hept-3-ene-1-carboxamide]: the concentration for half-maximal inhibition (IC50) came to 0.0025 µM at BACE1 [1], 0.0066 µM against BACE1 [2], 0.411 µM on BACE2 and 20 µM on Cathepsin D (CatD).

Turning to `C[C@H]1[C@@H](F)CCN1C(=O)[C@]12C[C@H]1[C@@](C)(c1cc(/C=C(\F)c3ccc(C#N)cn3)ccc1F)N=C(N)S2` [Example 306, 6-((Z)-2-(3-((1S,5S,6S)-3-amino-1-((2S,3S)-3-fluoro-2-methylpyrrolidine-1-carbonyl)-5-methyl-2-thia-4-azabicyclo[4.1.0]hept-3-en-5-yl)-4-fluorophenyl)-1-fluorovinyl)nicotinonitrile], the IC50 on BACE1 [1] came out at 0.002 µM; at BACE1 [2] (setting [3]), 0.001 µM; at BACE2, 0.111 µM; on Cathepsin D (CatD) it was 16.2 µM.

`C[C@]1(c2cc(/C=C(\F)c3ccc(C#N)cn3)ccc2F)N=C(N)S[C@@]2(C(=O)N3CCOC4(COC4)C3)C[C@H]21` [Example 308, 6-((Z)-2-(3-((1S,5S,6S)-3-amino-5-methyl-1-(2,5-dioxa-8-azaspiro[3.5]nonane-8-carbonyl)-2-thia-4-azabicyclo[4.1.0]hept-3-en-5-yl)-4-fluorophenyl)-1-fluorovinyl)nicotinonitrile]: the IC50 at BACE1 [1] turned out to be 0.0021 µM; at BACE1 [2] (setting [3]), 0.001 µM; on BACE2, 0.013 µM; on Cathepsin D (CatD), 296 µM.

Consider `C[C@@H]1COC[C@H](C)N1C(=O)[C@]12C[C@H]1[C@@](C)(c1cc(/C=C(\F)c3ccc(C#N)cn3)ccc1F)N=C(N)S2` [Example 313, 6-((Z)-2-(3-((1S,5S,6S)-3-amino-1-((3S,5R)-3,5-dimethylmorpholine-4-carbonyl)-5-methyl-2-thia-4-azabicyclo[4.1.0]hept-3-en-5-yl)-4-fluorophenyl)-1-fluorovinyl)nicotinonitrile], for which the IC50 at BACE1 [1] was found to be 0.0019 µM; at BACE1 [2] (setting [3]) it was 0.0022 µM; at BACE2, 0.147 µM; at Cathepsin D (CatD), 257 µM.

As to `C[C@@H]1COC[C@@H](C)N1C(=O)[C@]12C[C@H]1[C@@](C)(c1cc(/C=C(\F)c3ccc(C#N)cn3)ccc1F)N=C(N)S2` [Example 314, 6-((Z)-2-(3-((1S,5S,6S)-3-amino-1-((3R,5R)-3,5-dimethylmorpholine-4-carbonyl)-5-methyl-2-thia-4-azabicyclo[4.1.0]hept-3-en-5-yl)-4-fluorophenyl)-1-fluorovinyl)nicotinonitrile], the concentration for half-maximal inhibition (IC50) at BACE1 [1] turned out to be 0.0047 µM; on BACE1 [2] (setting [3]) it was 0.0067 µM; at BACE2, 0.24 µM; on Cathepsin D (CatD), 447 µM.

For `C[C@]1(c2cc(/C=C(\F)c3ccc(C#N)cn3)ccc2F)N=C(N)S[C@@]2(C(=O)N3C4CCC3COC4)C[C@H]21` [Example 315, 6-((Z)-2-(3-((1S,5S,6S)-3-amino-1-(3-oxa-8-azabicyclo[3.2.1]octane-8-carbonyl)-5-methyl-2-thia-4-azabicyclo[4.1.0]hept-3-en-5-yl)-4-fluorophenyl)-1-fluorovinyl)nicotinonitrile], the half-inhibitory concentration (IC50) was 0.0016 µM on BACE1 [1], 0.0013 µM at BACE1 [2], 0.071 µM at BACE2 and 390 µM at Cathepsin D (CatD).

For the compound `CC(C)[C@H]1CN(C(=O)[C@]23C[C@H]2[C@@](C)(c2cc(/C=C(\F)c4ccc(C#N)cn4)ccc2F)N=C(N)S3)CCO1` [Example 316, 6-((Z)-2-(3-((1S,5S,6S)-3-amino-1-((S)-2-isopropylmorpholine-4-carbonyl)-5-methyl-2-thia-4-azabicyclo[4.1.0]hept-3-en-5-yl)-4-fluorophenyl)-1-fluorovinyl)nicotinonitrile], the IC50 at BACE1 [1] is 0.003 µM; on BACE1 [2] (setting [3]), 0.007 µM; at BACE2 it was 0.033 µM; at Cathepsin D (CatD), 170 µM.

For `CC(C)[C@@H]1CN(C(=O)[C@]23C[C@H]2[C@@](C)(c2cc(/C=C(\F)c4ccc(C#N)cn4)ccc2F)N=C(N)S3)CCO1` [Example 317, 6-((Z)-2-(3-((1S,5S,6S)-3-amino-1-((R)-2-isopropylmorpholine-4-carbonyl)-5-methyl-2-thia-4-azabicyclo[4.1.0]hept-3-en-5-yl)-4-fluorophenyl)-1-fluorovinyl)nicotinonitrile], the IC50 was determined as 0.0018 µM on BACE1 [1], 0.007 µM on BACE1 [2] (setting [3]), 0.007 µM on BACE2 and 115 µM on Cathepsin D (CatD).

Regarding `C[C@]1(c2cc(/C=C(\F)c3ccc(C#N)cn3)ccc2F)N=C(N)S[C@@]2(C(=O)N3CCOC4(CC4)C3)C[C@H]21` [Example 318, 6-((Z)-2-(3-((1S,5S,6S)-3-amino-5-methyl-1-(4-oxa-7-azaspiro[2.5]octane-7-carbonyl)-2-thia-4-azabicyclo[4.1.0]hept-3-en-5-yl)-4-fluorophenyl)-1-fluorovinyl)nicotinonitrile], the IC50 at BACE1 [1] turned out to be 0.0029 µM; on BACE1 [2] (setting [3]) it was 0.0033 µM; at BACE2, 0.051 µM; on Cathepsin D (CatD), 108 µM.

Consider `C[C@]1(c2cc(/C=C(\F)c3ccc(C#N)cn3)ccc2F)N=C(N)S[C@@]2(C(=O)N3CC4CCC(C3)O4)C[C@H]21` [Example 319], for which the IC50 on BACE1 [1] stood at 0.0025 µM; on BACE1 [2] (setting [3]), 0.0017 µM; on BACE2, 0.097 µM; on Cathepsin D (CatD) it was 318 µM.

In the case of `C[C@]1(c2cc(/C=C(\F)c3ccc(C#N)cn3)ccc2F)N=C(N)S[C@@]2(C(=O)N3CC4(CCOCC4)C3)C[C@H]21` [Example 320, 6-((Z)-2-(3-((1S,5S,6S)-3-amino-5-methyl-1-(7-oxa-2-azaspiro[3.5]nonane-2-carbonyl)-2-thia-4-azabicyclo[4.1.0]hept-3-en-5-yl)-4-fluorophenyl)-1-fluorovinyl)nicotinonitrile], the concentration for half-maximal inhibition (IC50) at BACE1 [1] came out at 0.0052 µM; at BACE1 [2] (setting [3]) it was 0.0024 µM; at BACE2, 0.039 µM; at Cathepsin D (CatD) it was 292 µM.

Consider `C[C@H]1CN(C(=O)[C@]23C[C@H]2[C@@](C)(c2cc(/C=C(\F)c4ccc(C#N)cn4)ccc2F)N=C(N)S3)CCO1` [Example 321, 6-((Z)-2-(3-((1S,5S,6S)-3-amino-5-methyl-1-((S)-2-methylmorpholine-4-carbonyl)-2-thia-4-azabicyclo[4.1.0]hept-3-en-5-yl)-4-fluorophenyl)-1-fluorovinyl)nicotinonitrile], for which the 50% inhibitory concentration (IC50) at BACE1 [1] was 0.0035 µM; on BACE1 [2] (setting [3]), 0.0027 µM; on BACE2 it was 0.111 µM; at Cathepsin D (CatD), 578 µM.

On to `CC(C)[C@@H]1COCCN1C(=O)[C@]12C[C@H]1[C@@](C)(c1cc(/C=C(\F)c3ccc(C#N)cn3)ccc1F)N=C(N)S2` [Example 322, 6-((Z)-2-(3-((1S,5S,6S)-3-amino-1-((R)-3-isopropylmorpholine-4-carbonyl)-5-methyl-2-thia-4-azabicyclo[4.1.0]hept-3-en-5-yl)-4-fluorophenyl)-1-fluorovinyl)nicotinonitrile], for which the IC50 on BACE1 [1] came out at 0.0021 µM; on BACE1 [2] (setting [3]) it was 0.0026 µM; at BACE2, 0.03 µM; at Cathepsin D (CatD), 27.8 µM.

As for `C[C@H]1CN(C(=O)[C@]23C[C@H]2[C@@](C)(c2cc(/C=C(\F)c4ccc(C#N)cn4)ccc2F)N=C(N)S3)C[C@H](C)O1` [Example 323, 6-((Z)-2-(3-((1S,5S,6S)-3-amino-1-((2S,6S)-2,6-dimethylmorpholine-4-carbonyl)-5-methyl-2-thia-4-azabicyclo[4.1.0]hept-3-en-5-yl)-4-fluorophenyl)-1-fluorovinyl)nicotinonitrile], the IC50 on BACE1 [1] turned out to be 0.0031 µM; at BACE1 [2] (setting [3]), 0.0026 µM; on BACE2 it was 0.192 µM; on Cathepsin D (CatD) it was 411 µM.

These data come from patent publication US10246429B2, “Vinyl fluoride cyclopropyl fused thiazin-2-amine compounds as beta-secretase inhibitors and methods of use” (AMGEN INC., priority 2015, dated 2019).
